What all share (assay type): cell-based
One assay relates to U87MG. Kind of assay: MTS cell proliferation assay, U87MG (brain). The note with it: Homo sapiens, U-87 MG, 72 hours at 37° C., 490 nm. How it is done:
(§1) Selected cell lines were incubated for 72 hours at 37° C. with different concentrations of 4-[5-[bis(2-chloroethyl)amino]-4-formyl-1-methyl-1H-benzo[d]imidazol-2-yl]butyric acid (concentrations ranging from 1.5 μmol to 5 mmol per liter). The cells were then incubated with MTS solution (Promega) for 1 hour, and the effects of 4-[5-[bis(2-chloroethyl)amino]-4-formyl-1-methyl-1H-benzo[d]imidazol-2-yl]butyric acid on cell proliferation were determined colorimetrically at 490 nm. Cell growth was expressed as a percentage of the corresponding control (0.5 wt. % dimethyl sulfoxide in water).
Background: Tetrazolium dyes change colour on reduction, which living cells bring about.

A further assay relates to Calu-6. The experiment in a line: MTS cell proliferation assay, Calu-6 (lung). The note with it: Homo sapiens, 72 hours at 37° C., 490 nm. The protocol:
as §1

The test system of the next assay is BxPC-3. Kind of assay: MTS cell proliferation assay, BxPC-3 (pancreas). Particulars: Homo sapiens, 72 hours at 37° C., 490 nm. How it is done: as §1
Assay [1] concerns skin cancer, kidney cancer, lung cancer, brain tumors and pancreatic cancer. Kind of assay: cancer-cell-killing or cancer-cell-growth-inhibiting effect (summary of example 3). The note with it: summary statement; compound and its pharmaceutically acceptable salts; concentration at which 50% of the cancer cells are killed. The protocol:
IC50 stands for “inhibition concentration,” at which 50% of the cancer cells are killed.
as §1

Another assay has as its system A375. The experiment in a line: MTS cell proliferation assay, A375 (skin). The note with it: Homo sapiens, A-375, 72 hours at 37° C., 490 nm. How it is done: as §1
In a further assay the test system is Caki-1. The experiment in a line: MTS cell proliferation assay, Caki-1 (kidneys). Particulars: Homo sapiens, 72 hours at 37° C., 490 nm. The protocol: as §1

Broadly, the IC50 is the concentration at which inhibition is half-maximal. Higher therefore signals a need for much substance. As for `Cn1c(CCCC(=O)O)nc2c(C=O)c(N(CCCl)CCCl)ccc21` [4-[5-[bis(2-chloroethyl)amino]-4-formyl-1-methyl-1H-benzo[d]imidazol-2-yl]butyric acid], the IC50 in the assay with U87MG is 2.9 mM; in the assay on Calu-6, 1.3 mM; with BxPC-3, 0.74 mM; in the assay with A375 it was 1.3 mM; in the assay with Caki-1 it was 1.6 mM. The “low IC50 concentration range” value in assay [1] was “one hundred”.

The values above are taken from patent US20250295636A1, “METHOD FOR PREPARING 4-[5-[BIS(2-CHLOROETHYL)AMINO]-1-METHYL-1H-BENZO[D]IMIDAZOL-2-YL]BUTYRIC ACID ALKYL ESTERS AND FORMYLATED DERIVATIVES” (HERAEUS PRECIOUS METALS GMBH & CO. KG, priority 2022, published 2025).
